Laboratory results published in ChEMBL document CHEMBL5465560, “Selectivity Literature for EUbOPEN Chemogenomic Library” (2024).

Key:
[1] = target: Voltage-dependent P/Q-type calcium channel subunit alpha-1A (Homo sapiens, UniProt O00555); assay: Selectivity interaction (BET inhibitor selectivity panel (Human blocker intracellular Ca2+ fluorescence assay)) EUB0000102c CACNA1A; format: cell-based
[2] = target: 5-hydroxytryptamine receptor 1A (Homo sapiens, UniProt P08908); assay: Selectivity interaction (BET inhibitor selectivity panel (Human SPA binding assay)) EUB0000102c HTR1A
[3] = target: Voltage-gated inwardly rectifying potassium channel KCNH3 (Homo sapiens, UniProt Q9ULD8); assay: Selectivity interaction (BET inhibitor selectivity panel (Human FP binding assay)) EUB0000102c KCNH3
CREB-binding protein = CREB-binding protein (Homo sapiens, UniProt Q92793); assay: Selectivity interaction (Bromodomain panel (DSF assays, literature)) EUB0000102c CREBBP
[4] = target: Substance-K receptor (Homo sapiens) (UniProt P21452); assay: Selectivity interaction (CEREP panel (GPCRs, ion channels, and transporters)) EUB0000102c TACR2; details: at 10 µM
[5] = target: 5-hydroxytryptamine receptor 3A (Homo sapiens, UniProt P46098); assay: Selectivity interaction (BET inhibitor selectivity panel (Human antagonist intracellular Ca2+ fluorescence assay)) EUB0000102c HTR3A; format: cell-based
[6] = target: Sodium-dependent noradrenaline transporter (Homo sapiens, UniProt P23975); assay: Selectivity interaction (BET inhibitor selectivity panel (Human SPA binding assay)) EUB0000102c SLC6A2
[7] = target: Potassium voltage-gated channel subfamily E member 1 (Homo sapiens, UniProt P15382); assay: Selectivity interaction (BET inhibitor selectivity panel (Human Blocker ionworks assay)) EUB0000102c KCNE1
[8] = target: Potassium voltage-gated channel subfamily KQT member 1 (Homo sapiens, UniProt P51787); assay: Selectivity interaction (BET inhibitor selectivity panel (Human Blocker ionworks assay)) EUB0000102c KCNQ1
[9] = target: T1, Homeodomain-interacting protein kinase 2 (Homo sapiens, UniProt Q9H2X6); assay: Selectivity interaction (Eurofins binding assay) EUB0000008b HIPK2
Target sequence in this assay (Q9H2X6 whole entry): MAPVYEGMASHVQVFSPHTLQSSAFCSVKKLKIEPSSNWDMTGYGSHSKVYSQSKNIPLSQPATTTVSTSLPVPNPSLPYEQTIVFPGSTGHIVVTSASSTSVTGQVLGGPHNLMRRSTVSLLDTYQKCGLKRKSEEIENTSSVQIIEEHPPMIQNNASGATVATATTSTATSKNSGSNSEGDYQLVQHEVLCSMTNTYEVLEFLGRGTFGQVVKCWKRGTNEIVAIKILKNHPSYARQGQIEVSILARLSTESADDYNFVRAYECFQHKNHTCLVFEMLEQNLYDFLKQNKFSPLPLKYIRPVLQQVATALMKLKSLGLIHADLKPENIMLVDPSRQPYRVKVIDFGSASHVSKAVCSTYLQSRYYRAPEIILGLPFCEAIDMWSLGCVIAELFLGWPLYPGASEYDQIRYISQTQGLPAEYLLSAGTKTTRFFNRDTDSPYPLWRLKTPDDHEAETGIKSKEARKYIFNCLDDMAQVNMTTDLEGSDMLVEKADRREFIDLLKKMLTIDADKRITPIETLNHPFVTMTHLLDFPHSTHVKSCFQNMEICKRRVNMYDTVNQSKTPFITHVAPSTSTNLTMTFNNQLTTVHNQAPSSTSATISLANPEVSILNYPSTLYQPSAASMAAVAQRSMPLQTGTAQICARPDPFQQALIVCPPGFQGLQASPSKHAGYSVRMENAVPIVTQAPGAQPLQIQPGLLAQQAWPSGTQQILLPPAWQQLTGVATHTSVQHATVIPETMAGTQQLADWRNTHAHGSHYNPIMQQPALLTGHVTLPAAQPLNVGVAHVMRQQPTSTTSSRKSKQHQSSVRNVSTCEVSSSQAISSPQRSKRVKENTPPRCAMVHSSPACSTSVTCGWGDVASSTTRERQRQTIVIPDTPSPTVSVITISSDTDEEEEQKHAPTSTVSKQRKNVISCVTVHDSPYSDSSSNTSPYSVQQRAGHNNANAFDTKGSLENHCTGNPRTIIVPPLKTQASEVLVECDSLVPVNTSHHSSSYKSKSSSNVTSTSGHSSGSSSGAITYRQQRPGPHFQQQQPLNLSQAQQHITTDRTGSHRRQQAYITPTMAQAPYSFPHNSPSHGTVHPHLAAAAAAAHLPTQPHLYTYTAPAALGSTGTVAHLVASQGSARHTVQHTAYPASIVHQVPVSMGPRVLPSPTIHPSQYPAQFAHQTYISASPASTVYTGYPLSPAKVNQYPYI

[10] = target: Homeodomain-interacting protein kinase 3 (Homo sapiens, UniProt Q9H422); assay: Selectivity interaction (Eurofins kinase panel) EUB0000008b HIPK3; details: at 1 µM
[11] = target: Homeodomain-interacting protein kinase 4 (Homo sapiens, UniProt Q8NE63); assay: Selectivity interaction (NanoBRET assay (using HEK293T cells)) EUB0000008b HIPK4; format: cell-based, HEK-293T
[12] = target: T1, Homeodomain-interacting protein kinase 2; assay: Selectivity interaction (Eurofins kinase panel) EUB0000008b HIPK2; details: at 1 µM
Target sequence in this assay (Q9H2X6 whole entry, looked up): as the sequence (Q9H2X6 whole entry) above

[13] = target: Glycogen synthase kinase-3 alpha (Homo sapiens, UniProt P49840); assay: Selectivity interaction (Eurofins kinase panel) EUB0000008b GSK3A; details: at 1 µM
[14] = target: T1, Homeodomain-interacting protein kinase 2; assay: Selectivity interaction (NanoBRET assay (using HEK293T cells)) EUB0000008b HIPK2; format: cell-based, HEK-293T
Target sequence in this assay (Q9H2X6 whole entry): as above

Chain of Potassium voltage-gated channel subfamily KQT member 1 (P51787 whole entry): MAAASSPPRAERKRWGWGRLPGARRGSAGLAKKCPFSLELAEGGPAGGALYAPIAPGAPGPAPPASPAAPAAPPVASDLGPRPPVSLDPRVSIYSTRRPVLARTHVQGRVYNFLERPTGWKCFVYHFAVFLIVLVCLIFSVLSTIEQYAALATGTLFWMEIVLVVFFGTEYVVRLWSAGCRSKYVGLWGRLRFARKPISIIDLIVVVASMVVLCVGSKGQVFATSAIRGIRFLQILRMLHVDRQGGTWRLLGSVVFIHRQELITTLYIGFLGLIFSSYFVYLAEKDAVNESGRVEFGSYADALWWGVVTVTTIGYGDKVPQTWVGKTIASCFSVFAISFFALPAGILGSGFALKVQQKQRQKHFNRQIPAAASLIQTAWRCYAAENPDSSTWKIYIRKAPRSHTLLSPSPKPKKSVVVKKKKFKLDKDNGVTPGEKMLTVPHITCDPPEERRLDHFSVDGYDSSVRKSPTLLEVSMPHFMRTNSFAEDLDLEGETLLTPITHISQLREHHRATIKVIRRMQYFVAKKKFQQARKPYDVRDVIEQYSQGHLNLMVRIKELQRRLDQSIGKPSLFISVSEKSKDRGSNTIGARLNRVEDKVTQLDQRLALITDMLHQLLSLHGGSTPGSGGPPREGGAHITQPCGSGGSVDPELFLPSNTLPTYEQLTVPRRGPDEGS
Chain of 5-hydroxytryptamine receptor 3A (P46098 whole entry): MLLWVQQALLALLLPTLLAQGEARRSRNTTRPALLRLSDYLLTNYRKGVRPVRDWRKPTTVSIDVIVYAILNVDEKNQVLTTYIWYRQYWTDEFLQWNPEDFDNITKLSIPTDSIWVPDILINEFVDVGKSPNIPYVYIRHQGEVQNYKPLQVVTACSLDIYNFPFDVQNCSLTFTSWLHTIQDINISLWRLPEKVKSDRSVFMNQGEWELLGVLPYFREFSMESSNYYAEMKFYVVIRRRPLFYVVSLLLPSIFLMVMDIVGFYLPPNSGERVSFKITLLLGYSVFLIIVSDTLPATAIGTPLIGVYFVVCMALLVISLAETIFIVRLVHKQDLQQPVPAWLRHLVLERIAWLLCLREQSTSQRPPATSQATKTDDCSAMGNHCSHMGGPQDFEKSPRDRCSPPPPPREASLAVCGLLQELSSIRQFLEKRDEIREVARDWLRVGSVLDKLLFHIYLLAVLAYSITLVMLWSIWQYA
Chain of Homeodomain-interacting protein kinase 3 (Q9H422 whole entry, looked up): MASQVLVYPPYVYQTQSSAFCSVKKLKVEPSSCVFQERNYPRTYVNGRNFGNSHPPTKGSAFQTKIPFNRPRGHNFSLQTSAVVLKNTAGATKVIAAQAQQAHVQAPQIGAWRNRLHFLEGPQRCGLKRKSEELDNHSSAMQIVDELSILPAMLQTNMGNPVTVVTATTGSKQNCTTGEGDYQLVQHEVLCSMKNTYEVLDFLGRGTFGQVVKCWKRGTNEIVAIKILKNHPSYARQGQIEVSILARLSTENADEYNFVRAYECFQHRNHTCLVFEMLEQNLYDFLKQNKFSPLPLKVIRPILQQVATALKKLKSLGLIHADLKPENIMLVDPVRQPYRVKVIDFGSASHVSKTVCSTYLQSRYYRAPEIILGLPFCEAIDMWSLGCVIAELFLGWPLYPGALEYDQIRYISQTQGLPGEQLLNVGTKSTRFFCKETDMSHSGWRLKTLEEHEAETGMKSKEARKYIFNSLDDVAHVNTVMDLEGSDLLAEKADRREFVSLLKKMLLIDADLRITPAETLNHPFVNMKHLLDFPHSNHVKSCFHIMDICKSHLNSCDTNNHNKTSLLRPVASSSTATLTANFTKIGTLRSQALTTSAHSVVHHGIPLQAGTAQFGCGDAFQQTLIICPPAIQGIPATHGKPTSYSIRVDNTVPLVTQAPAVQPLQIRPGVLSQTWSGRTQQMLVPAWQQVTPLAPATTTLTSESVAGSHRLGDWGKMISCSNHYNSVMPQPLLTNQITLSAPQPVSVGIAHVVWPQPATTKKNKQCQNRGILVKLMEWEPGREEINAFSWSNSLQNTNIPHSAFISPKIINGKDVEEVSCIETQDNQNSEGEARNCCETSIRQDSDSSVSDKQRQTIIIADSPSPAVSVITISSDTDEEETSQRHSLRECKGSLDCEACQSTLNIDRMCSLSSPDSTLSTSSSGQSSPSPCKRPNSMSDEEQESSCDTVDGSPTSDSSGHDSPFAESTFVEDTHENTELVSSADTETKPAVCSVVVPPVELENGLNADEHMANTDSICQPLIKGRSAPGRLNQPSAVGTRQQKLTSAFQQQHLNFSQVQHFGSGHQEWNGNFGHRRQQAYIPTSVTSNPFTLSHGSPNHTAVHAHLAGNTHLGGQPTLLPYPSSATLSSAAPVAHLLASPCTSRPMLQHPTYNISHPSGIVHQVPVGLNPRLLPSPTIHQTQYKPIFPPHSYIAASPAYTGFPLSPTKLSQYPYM
Chain of Sodium-dependent noradrenaline transporter (P23975 whole entry): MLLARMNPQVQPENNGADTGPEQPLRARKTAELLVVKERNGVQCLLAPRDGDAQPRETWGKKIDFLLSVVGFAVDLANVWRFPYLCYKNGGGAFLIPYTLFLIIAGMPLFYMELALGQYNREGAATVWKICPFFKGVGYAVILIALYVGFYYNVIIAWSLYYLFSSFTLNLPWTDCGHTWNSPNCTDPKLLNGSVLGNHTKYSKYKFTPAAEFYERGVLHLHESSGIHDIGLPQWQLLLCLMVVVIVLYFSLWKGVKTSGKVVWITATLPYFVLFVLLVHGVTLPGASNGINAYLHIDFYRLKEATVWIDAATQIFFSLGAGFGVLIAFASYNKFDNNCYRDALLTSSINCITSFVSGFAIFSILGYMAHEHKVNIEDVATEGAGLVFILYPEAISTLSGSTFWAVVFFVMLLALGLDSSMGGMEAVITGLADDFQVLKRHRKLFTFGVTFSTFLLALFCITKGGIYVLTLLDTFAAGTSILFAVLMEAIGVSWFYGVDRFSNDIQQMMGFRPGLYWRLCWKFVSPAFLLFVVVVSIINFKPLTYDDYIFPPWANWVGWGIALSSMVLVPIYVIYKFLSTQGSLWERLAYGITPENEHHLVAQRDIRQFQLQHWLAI
Chain of Substance-K receptor (Homo sapiens) (P21452 whole entry): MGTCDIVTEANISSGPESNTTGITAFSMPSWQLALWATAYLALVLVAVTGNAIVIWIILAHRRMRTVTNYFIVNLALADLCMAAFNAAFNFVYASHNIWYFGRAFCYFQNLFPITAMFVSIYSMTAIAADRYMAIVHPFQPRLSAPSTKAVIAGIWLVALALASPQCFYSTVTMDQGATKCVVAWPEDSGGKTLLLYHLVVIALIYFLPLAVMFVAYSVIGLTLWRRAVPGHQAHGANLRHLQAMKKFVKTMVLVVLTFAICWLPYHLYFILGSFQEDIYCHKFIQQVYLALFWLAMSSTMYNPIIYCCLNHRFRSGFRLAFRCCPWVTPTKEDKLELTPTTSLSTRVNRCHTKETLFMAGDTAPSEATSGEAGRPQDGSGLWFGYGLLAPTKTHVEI

SMILES | IC50 [1] | IC50 [2] | IC50 [3] | dTM (CREB-binding protein) | % of inhibition [4] | IC50 [5] | IC50 [6] | IC50 [7] | IC50 [8] | IC50 [9] | % of activity [10] | IC50 [11] | % of activity [12] | % of activity [13] | IC50 [14]
COc1cc2c(cc1-c1c(C)noc1C)ncc1[nH]c(=O)n([C@H](C)c3ccccn3)c12 | 1.26 µM | > 100 µM | 40 µM | < 3 K | 48% | > 50 µM | > 100 µM | > 25 µM | > 25 µM |  |  |  |  |  | 
Cn1cc(-c2ccc3occ(-c4cccc(-c5ccncc5)c4)c3n2)cn1 |  |  |  |  |  |  |  |  |  | 0.023 µM | 94% | 5.41 µM | 99% | 90% | > 10 µM
